pIC50: −log10 of the molar value.
How the values were obtained:
[1] = target: T1, rat EP2 prostaglandin E2 receptor (Rattus norvegicus, UniProt Q62928); assay: Rat EP2 receptor binding assay (displacement of 3H-prostaglandin E2); details: 293S cell membranes expressing rat EP2, 3 nM 3H-prostaglandin E2, 1 hour at 25° C.
T1 construct: This full length receptor is used to prepare 293S cells expressing the EP2 receptor; expressed in transfected cells; membranes used in the assay
Excerpt: Rat EP2 Recptor Binding Assay
Assay for Binding to Prostaglandin E2 Receptors
The full length EP2 receptor is made as disclosed in Nemoto et al., Prostaglandins and other Lipid Mediators, 1997, 54, 713-725. This full length receptor is used to prepare 293S cells expressing the EP2 receptor.
293S cells expressing the rat EP2 prostaglandin E2 receptor are generated according to methods known to those skilled in the art. Typically, PCR (polymerase chain reaction) primers corresponding to the 5′ and 3′ ends of the published full length receptor are made according to the well known methods disclosed above and are used in an RT-PCR reaction using the total RNA from rat kidney as a source. […]
Membrane Preparation: All operations are performed at 4° C. […] Pelleted membranes are resuspended to 3-10 mg protein per ml, protein concentration being determined of the method of Bradford [Bradford, M., Anal. Biochem., 72, 248 (1976)]. […]
Binding Assay: Frozen membranes prepared as above are thawed and diluted to 1 mg protein per ml in Buffer A above. […] To determine the amount of ^3H-prostaglandin bound to the membranes, the dried filters are placed into plastic bags with scintillation fluid and counted in a LKB 1205 Betaplate reader (Wallac, Gaithersburg, Md.). […]

[2] = Metabolism of 14C-parent in rat liver microsomes; type: in vitro ADME; details: 20 μM 14C-parent, NADPH, 30 minutes, 37° C.; HPLC radiochromatogram peak
Experimental: (§1) Human (HL-mix 12), rat, monkey and dog liver microsomes were prepared by differential centrifugation using standard procedures. Prior to use, liver microsomes were thawed on ice and reconstituted using 100 mM potassium phosphate pH 7.4. [^14C]-(3-{[4-tert-butyl-benzyl)-(pyridine-3-sulfonyl)-amino]-methyl}-phenoxy)-acetic acid was dissolved 100 mM potassium phosphate pH 7.4 at a final substrate concentration of 20 μM. Samples were pre-incubated for 3 min with microsomes (CYP 450; 0.5 μM) at 37° C. in a shaking water bath. Incubations were initiated with the addition of 100 μl cofactor (1.1 mM NADPH, 10 mM MgCl2) per 1 ml of incubation mixture. Incubations were stopped after 30 minutes by the addition of an equal volume of cold acetonitrile.
(§2) Metabolite quantification was performed by measuring the areas of individually separated HPLC peaks using the β-RAM (IN/US, Win-flow). […]
(§3) Identification of the metabolites was performed using a Finnigan TSQ 7000 triple quadrupole mass spectrometer equipped with an API-2 electrospray interface. […] The β-RAM response was recorded as a real time analog signal by the MS data collection system. The collected data from the radioactivity and MS detectors were separated by the dwell volume of flow from the MS to the radioactivity detector (corresponding to a dwell time of about 0.2 min.). […]

[3] = Metabolism of 14C-parent in monkey liver microsomes; type: in vitro ADME; details: 20 μM 14C-parent, NADPH, 30 minutes, 37° C.; HPLC radiochromatogram peak
Experimental: as §1, §2, §3

[4] = test system: Dog hepatocytes; assay: Metabolism of parent in dog hepatocytes; type: in vitro ADME, Beagle dogs; details: 20 μM parent, 2 million cells per ml, 4 hours, 37° C.
Experimental: (§4) Human hepatocytes were generated from a mix of 3 livers. Rat and monkey hepatocytes were generated using Sprague Dawley rats (12 livers), Cynomolgus monkey (1 liver) and Beagle dogs (2 livers). Cryopreserved hepatocytes were suspended in William's E media with 10% FBS to a viable count of 2 million cells per ml and gassed with 95/5 O2/CO2 initially and every hour of incubations. After the addition of 20 μM (3-{[4-tert-butyl-benzyl)-(pyridine-3-sulfonyl)-amino]-methyl}-phenoxy)-acetic acid to a 25 ml Erlenmeyer flask, 2.5 ml of hepatocytes suspension was added and incubated for 4 hours at 37° C. in a shaking water bath.
(§5) Metabolite quantification was performed by measuring the areas of individually separated HPLC peaks using the β-RAM (IN/US, Win-flow). The β-RAM provided integrated peak representation printouts in CPM as well as the percentage of the radiolabeled material. The β-RAM was operated using a solid scintillation cell.
Incubations were stopped by the addition of an equal volume of cold acetonitrile, sonicated and centrifuged at 3000 rpm for 10 minutes. The supernatants were removed and evaporated to dryness under nitrogen. Residues were reconstituted in 50:50 (acetonitrile: water) and aliquots (50-90 μl) were injected onto the HPLC system for analysis.
The HPLC system consisted of a HP-1100 solvent delivery system, a HP-1100 membrane degasser, a HP-1100 autoinjector (Hewlett Packard) and an IN/US radioactive monitor (β-RAM). Chromatography was performed on a YMC AQ (C-18) column (4.6 mm×150 mm, 3 μm) (Waters, Milford, Mass.). […]
as §3

[5] = Metabolism of 14C-parent in dog liver microsomes; type: in vitro ADME; details: 20 μM 14C-parent, NADPH, 30 minutes, 37° C.; HPLC radiochromatogram peak
Experimental: as §1, §2, §3

[6] = test system: Monkey hepatocytes; assay: Metabolism of parent in monkey hepatocytes; type: in vitro ADME, Cynomolgus monkey; details: 20 μM parent, 2 million cells per ml, 4 hours, 37° C.; mobile phase pH 5.0
Experimental: as §4
as §5, with “cell. […]” for “cell.”
as §3

[7] = test system: Rat hepatocytes; assay: Metabolism of parent in rat hepatocytes; type: in vitro ADME, Sprague Dawley rats; details: 20 μM parent, 2 million cells per ml, 4 hours, 37° C.
Experimental: as §4
as §5, with “cell. […]” for “cell.”
as §3

T1 sequence (Q62928 whole entry): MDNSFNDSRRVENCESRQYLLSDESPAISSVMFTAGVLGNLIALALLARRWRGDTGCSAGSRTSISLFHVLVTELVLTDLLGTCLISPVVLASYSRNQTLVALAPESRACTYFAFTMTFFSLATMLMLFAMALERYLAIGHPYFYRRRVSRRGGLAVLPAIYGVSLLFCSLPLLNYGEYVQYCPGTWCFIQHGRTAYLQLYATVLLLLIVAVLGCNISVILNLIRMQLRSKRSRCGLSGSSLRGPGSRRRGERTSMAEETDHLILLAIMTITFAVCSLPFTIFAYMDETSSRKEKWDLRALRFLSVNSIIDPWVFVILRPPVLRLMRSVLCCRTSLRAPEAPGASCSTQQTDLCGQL

Compound	Percent of Radioactivity, Dog hepatocytes [4]	Percent of Radioactivity, Rat hepatocytes [7]	other results
CC(C)(C(=O)O)c1ccc(CN(Cc2cccc(OCC(=O)O)c2)S(=O)(=O)c2cccnc2)cc1 [Metabolite M3, 2-(4-{[(3-carboxymethoxy-benzyl)-(pyridine-3-sulfonyl)-amino]-methyl}-phenyl)-2-methyl-propionic acid]	–	–	pIC50 [1]: 6.12
CC(C)(C(=O)O)c1ccc(CNS(=O)(=O)c2cccnc2)cc1 [Metabolite M11, 2-methyl-2-{4-[(pyridine-3-sulfonylamino)-methyl]-phenyl}-propionic acid]	–	–	Percent of Radioactivity, Rat liver microsomes [2]: 20.7%; Percent of Radioactivity, Monkey liver microsomes [3]: 7.97%
CC(C)(C)c1ccc(CN(Cc2ccc(O)c(OCC(=O)O)c2)S(=O)(=O)c2cccnc2)cc1 [Metabolite M12, (5-{[(4-tert-butyl-benzyl)-(pyridine-3-sulfonyl)-amino]-methyl}-hydroxy-phenoxy)-acetic acid]	15.0%	–	–
CC(C)(C)c1ccc(CNS(=O)(=O)c2cccnc2)cc1 [Metabolite M20, pyridine-3-sulfonic acid 4-tert-butyl-benzylamide]	–	–	Percent of Radioactivity, Dog liver microsomes [5]: 1.96%
CC(C)(CO)c1ccc(CNS(=O)(=O)c2cccnc2)cc1 [Metabolite M21, pyridine-3-sulfonic acid 4-(2-hydroxy-1,1-dimethyl-ethyl)-benzylamide]	7.92%	8.91%	Percent of Radioactivity, Monkey hepatocytes [6]: 4.53%
dihydroxy (3-{[4-tert-butyl-benzyl)-(pyridine-3-sulfonyl)-amino]-methyl}-phenoxy)-acetic acid [Metabolite M2]	6.59%	15.1%	–

Reference: US6852863B2, “Metabolites of (3-{[4-tert-butyl-benzyl)-(pyridine-3-sulfonyl)-amino]-methyl}-phenoxy)-acetic acid” (Pfizer Inc., priority 2002, dated 2005)
